Source: patent US4140764A, “β-Lactamase inhibitors and process for their preparation” (priority 1975, dated 1979)
Structures can show the parent of a compound that is named as a salt. Values belong to the compound of their own block, whether it stands above or below them.

How the values were obtained:
Staphylococcus aureus = experiment: Antibacterial synergism, microtitre method (Example 42); format: cell-based; settings: Table 6
[1] = test system: Staphylococcus aureus (Russell); experiment: as above; format: cell-based
[2] = Hydrolysis of the methyl ester to clavulanic acid in pH 7 buffer; format: physicochemical
From the text: Many esters of clavulanic acid differ from analagous esters of penicillins or cephalosporins in that they show an enhanced tendency to hydrolyze to clavulanic acid under mild conditions. […] Esters which undergo some hydrolysis under mild conditions are included within the formula (IX): [drawing 8] wherein R^1 is a hydrocarbon group of 1- 9 carbon atoms optionally substituted by halogen, lower alkoxy, hydroxyl or optionally salted basic groups of the formula NR^2 R^3 wherein R^2 is a hydrogen atom or a lower alkyl group, R^3 is a hydrogen atom or a lower alkyl group or is attached to R^2 so that NR^2 R^3 is a 5- or 6- membered ring.
The reaction was followed by paper chromatography (bioautographic system). Using the butanol/ethanol/water system to follow the reaction over a period of 2 hours the zone of the methyl ester at Rf 0.79 decreased in size as the zone of clavulanic acid at Rf 0.12 increased.

Proteus mirabilis C889 = experiment: Synergism of clavulanic acid methyl ester, M.I.C. (Example 32); format: cell-based
Klebsiella Aerogenes 62 = experiment: Antibacterial synergism, microtitre method (Example 42); format: cell-based; settings: Table 8, strain 62
[3] = test system: Klebsiella Aerogenes E 70; experiment: as above; format: cell-based; settings: Table 8, strain E 70
[4] = test system: Staphylococcus aureus (Russell); experiment: Synergism of clavulanic acid methyl ester, M.I.C. (Example 32); format: cell-based
Escherichia coli B 11 = experiment: Antibacterial synergism, microtitre method (Example 42); format: cell-based; settings: B11, Table 5, inoculum 0.5 × 10^-2, read-out: Minimum Inhibitory Concentration, compound alone
Enterobacter cloacae = experiment: as above; format: cell-based; settings: Table 5, inoculum 0.5 × 10^-2, read-out: Minimum Inhibitory Concentration, compound alone
Klebsiella aerogenes A = experiment: as above; format: cell-based; settings: Table 8, strain A
[5] = target: T1, β-lactamase of E. coli JT410 (Escherichia coli, UniProt P00811); experiment: standard enzyme inhibitory assay (Example 49); format: biochemical; settings: read-out: I50 (converted)
T1 construct: E. coli JT410; endogenous in cells; host or cells: Escherichia coli JT410
T1 sequence (P00811 20-377): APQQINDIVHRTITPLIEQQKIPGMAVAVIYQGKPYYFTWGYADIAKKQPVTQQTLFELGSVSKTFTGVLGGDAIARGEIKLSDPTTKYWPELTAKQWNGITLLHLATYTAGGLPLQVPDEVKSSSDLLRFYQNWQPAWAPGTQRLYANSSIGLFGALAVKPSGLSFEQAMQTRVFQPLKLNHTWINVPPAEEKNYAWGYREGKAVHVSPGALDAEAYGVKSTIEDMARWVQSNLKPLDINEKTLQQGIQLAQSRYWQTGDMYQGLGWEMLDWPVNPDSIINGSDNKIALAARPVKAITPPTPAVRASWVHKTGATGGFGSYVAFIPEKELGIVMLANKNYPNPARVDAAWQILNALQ

Structure (SMILES): O=C(O)[C@H]1/C(=C/CO)O[C@@H]2CC(=O)N21 [clavulanic acid sodium salt, 3-(β-hydroxyethylidine)-7-oxo-4-oxa-1-azabicyclo [3,2,0]heptane-2-carboxylic acid sodium salt]
Minimum Inhibitory Concentration, compound alone (Staphylococcus aureus): 62 µg/mL
Minimum Inhibitory Concentration, compound alone ([1]; Table 6): 15 µg/mL

conversion of the ester to clavulanic acid ([2]; 1 mg/ml, 37° C., 0.05M phosphate buffer pH 7, followed over 2 hours): Slow conversion
hydrolysis to clavulanic acid ([2]; water buffered to pH7): slowly hydrolyze
Structure (SMILES): COC(=O)[C@H]1/C(=C/CO)O[C@@H]2CC(=O)N21 [clavulanic acid methyl ester]

MIC of Ampicillin + 5 μg/ml of Benzyl Ester of clavulanic acid (Klebsiella Aerogenes 62): 3.9 µg/mL
MIC of Ampicillin + 5 μg/ml of Methyl Ester of clavulanic acid (Klebsiella Aerogenes 62): 3.9 µg/mL
MIC of Ampicillin + 5 μg/ml of Benzyl Ester of clavulanic acid [3]: 3.9 µg/mL
MIC of Ampicillin + 5 μg/ml of Methyl Ester of clavulanic acid [3]: 3.9 µg/mL
MIC (Escherichia coli B 11): > 500 µg/mL
MIC (Enterobacter cloacae): 250 µg/mL
MIC of Ampicillin + 5 μg/ml of Benzyl Ester of clavulanic acid (Klebsiella aerogenes A): 1.9 µg/mL
MIC of Ampicillin + 5 μg/ml of Methyl Ester of clavulanic acid (Klebsiella aerogenes A): 1.9 µg/mL
Structure (SMILES): CC1(C)S[C@@H]2[C@H](NC(=O)[C@H](N)c3ccccc3)C(=O)N2[C@H]1C(=O)O [ampicillin]
M.I.C. of ampicillin in the presence of 5 μg/ml. clavulanic acid methyl ester (Proteus mirabilis C889): 31 µg/mL
M.I.C. of antibiotic in the presence of 1.0 μg/ml. clavulanic acid methyl ester [4]: < 0.4 µg/mL

Structure (SMILES): O=C(Cc1cccs1)N[C@@H]1C(=O)N2C(C(=O)[O-])=C(C[n+]3ccccc3)CS[C@H]12 [cephaloridine]
Minimum Inhibitory Concentration of cephaloridine with synergist added at 1 μg/ml instead of 5 μg/ml [1]: Same value

Structure (SMILES): O=C(COc1ccccc1)OC/C=C1\O[C@@H]2CC(=O)N2[C@H]1C(=O)OCc1ccccc1 [benzyl phenoxyacetylclavulanate, Benzyl Phenoxyacetylclavulanate]
IC50 [5]: 3.54 µM
